Where two headings read alike, the source gives them in different places.
Target: Cbl-b protein (CBL-B, GST-Tag) (Homo sapiens (Human), UniProt Q13191)
Test: HTRF based binding assay, affinity to Cbl-b protein
[1] = HTRF binding, CBL-B (GST-Tag), fluorescence labeled Cbl-b binding probe

Cbl-b protein (CBL-B, GST-Tag), sequence (Q13191 whole entry): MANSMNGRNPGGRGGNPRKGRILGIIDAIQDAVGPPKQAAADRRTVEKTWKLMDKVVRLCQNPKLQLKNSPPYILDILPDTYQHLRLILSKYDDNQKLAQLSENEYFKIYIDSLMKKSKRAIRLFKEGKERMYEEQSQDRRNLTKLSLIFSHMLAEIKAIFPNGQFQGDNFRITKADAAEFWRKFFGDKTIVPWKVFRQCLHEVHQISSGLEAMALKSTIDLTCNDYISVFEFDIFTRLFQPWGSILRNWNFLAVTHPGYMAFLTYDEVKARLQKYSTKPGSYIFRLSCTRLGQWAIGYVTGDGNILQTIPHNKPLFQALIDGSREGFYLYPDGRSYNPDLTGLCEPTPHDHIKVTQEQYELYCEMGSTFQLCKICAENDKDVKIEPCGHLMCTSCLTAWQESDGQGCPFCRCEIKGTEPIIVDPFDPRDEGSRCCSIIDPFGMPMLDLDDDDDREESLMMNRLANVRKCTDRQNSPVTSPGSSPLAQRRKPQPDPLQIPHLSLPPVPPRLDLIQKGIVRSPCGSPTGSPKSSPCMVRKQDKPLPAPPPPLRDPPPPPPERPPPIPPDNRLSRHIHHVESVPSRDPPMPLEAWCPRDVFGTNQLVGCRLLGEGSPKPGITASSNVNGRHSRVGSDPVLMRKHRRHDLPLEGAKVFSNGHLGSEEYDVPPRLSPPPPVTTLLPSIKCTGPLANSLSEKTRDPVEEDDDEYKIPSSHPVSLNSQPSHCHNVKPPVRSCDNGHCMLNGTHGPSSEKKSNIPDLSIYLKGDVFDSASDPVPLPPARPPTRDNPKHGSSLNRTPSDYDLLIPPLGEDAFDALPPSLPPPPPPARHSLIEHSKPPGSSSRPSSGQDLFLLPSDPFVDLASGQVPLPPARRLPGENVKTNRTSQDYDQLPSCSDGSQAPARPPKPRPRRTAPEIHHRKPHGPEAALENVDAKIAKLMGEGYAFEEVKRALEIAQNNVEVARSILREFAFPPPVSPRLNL

[2H]C([2H])(c1cc(C(F)(F)F)c2ncn(-c3cccc([C@]4(c5nncn5C)C[C@@H](C)C4)c3)c(=O)c2c1)N1CCC[C@H](C)C1 [Example 104]
IC50 [1]: < 20 nM

CC1CC(c2cccc(-n3cnc4c(C(F)(F)F)c(CN5CCC[C@H](C)C5)[nH]c4c3=O)c2)(c2nncn2C)C1 (stereo partly shown) [Example 63]
IC50 [1]: < 20 nM

[2H]c1nnc(C2(c3ccnc(-n4cnc5c(C(F)(F)F)cc(CN6CCC[C@H](C)C6)cc5c4=O)c3)CC(C)C2)n1C(F)F (stereo partly shown) [Example 113]
IC50 [1]: < 20 nM

CC1CC(c2cccc(NC(=O)c3cc(CN4CCC[C@H](C)C4)cc(C(F)(F)F)c3)c2)(c2nncn2C)C1 (stereo partly shown) [Example 30]
IC50: 20 to 50 nM

CC1CC(c2cccc(-c3nc4cc(CN5CCC[C@H](C)C5)cc(C(F)(F)F)c4n3C)c2)(c2nncn2C)C1 (stereo partly shown) [Example 8]
IC50: 50 to 500 nM

CC1CC(c2cccc(-n3ncc4c(C(F)(F)F)cc(CN5CCC(F)(F)[C@H](C)C5)cc4c3=O)c2)(c2nncn2C)C1 (stereo partly shown) [Example 14]
IC50: 50 to 500 nM

CC1CC(c2cccc(-n3ccc4c(C(F)(F)F)cc(CN5CCC[C@H](C)C5)cc4c3=O)c2)(c2nncn2C)C1 (stereo partly shown) [Example 23]
IC50 [1]: < 20 nM

Cn1cnnc1[C@]1(c2ccnc(-n3ncc4c(C(F)(F)F)cc(CN5CCC6(CC6)C5)cc4c3=O)c2)C[C@H](C)C1 [Example 36]
IC50: 20 to 50 nM

CC1CC(c2cccc(-n3ncc4c(C(F)(F)F)cc(CN5CCCCC5)cc4c3=O)c2)(c2nncn2C)C1 (stereo not shown) [Example 22]
IC50: 50 to 500 nM

CC1CC(c2cncc(-n3ncc4c(C(F)(F)F)cc(CN5CCC[C@H](C)C5)cc4c3=O)c2)(c2nncn2C)C1 (stereo partly shown) [Example 54]
IC50: 50 to 500 nM

[2H]C([2H])([2H])n1cnnc1C1(c2ccnc(-n3cnc4c(C(F)(F)F)cc(CN5CCC[C@H](C)C5)cc4c3=O)c2)CC(C)C1 (stereo partly shown) [Example 121]
IC50: < 20 nM

Cn1cnnc1[C@]1(c2cc(OCF)nc(-n3cnc4c(C(F)(F)F)cc(CN5CCCC(C)(F)C5)cc4c3=O)c2)C[C@H](C)C1 (stereo partly shown) [Example 108]
IC50 [1]: < 20 nM

C[C@H]1CCCN(Cc2cc(C(F)(F)F)c3ncn(-c4cccc(C5(Cc6nncn6C)COC5)c4)c(=O)c3c2)C1 [Example 80, (S)-3-(3-(3-((4-methyl-4H-1,2,4-triazol-3-yl)methyl)oxetan-3-yl)phenyl)-6-((3-methylpiperidin-1-yl)methyl)-8-(trifluoromethyl)quinazolin-4(3H)-one]
IC50: 500 to 1000 nM

C#C[C@H]1CCCN(Cc2cc(C(F)(F)F)c3ncn(-c4cc([C@]5(c6nncn6C)C[C@@H](C)C5)ccn4)c(=O)c3c2)C1 [Example 61]
IC50: 20 to 50 nM

C[C@H]1CCCN(Cc2cc(C(F)(F)F)c3ncn(-c4cccc(C5(c6nncn6C)CC(=O)C5)c4)c(=O)c3c2)C1 [Example 67]
IC50: 50 to 500 nM

C[C@H]1CCCN(Cc2cc(C(F)(F)F)c3cn(-c4cccc(C5(c6nncn6C)CC(OC(F)F)C5)c4)nc3c2)C1 (stereo partly shown) [Example 59]
IC50: 50 to 500 nM

CC1CC(c2cccc(-c3nc4cc(CN5CCC[C@H](C)C5)cc(C(F)(F)F)c4s3)c2)(c2nncn2C)C1 (stereo partly drawn) [Example 4, (S)-2-(3-(3-methyl-1-(4-methyl-4H-1,2,4-triazol-3-yl)cyclobutyl)phenyl)-5-((3-methylpiperidin-1-yl)methyl)-7-(trifluoromethyl)benzo[d]thiazole]
IC50 [1]: < 20 nM

C#CC1CC(c2ccnc(-n3cnc4c(C(F)(F)F)cc(CN5CCC[C@H](C)C5)cc4c3=O)c2)(c2nncn2C)C1 (stereo partly shown) [Example 101]
IC50 [1]: < 20 nM

COCC1CC(c2cccc(-n3cc4c(C(F)(F)F)cc(CN5CCC[C@H](C)C5)cc4n3)c2)(c2nncn2C)C1 (stereo partly shown) [Example 33]
IC50: 20 to 50 nM

CC1CC(c2cccc(-n3cc4c(C(F)(F)F)cc(CN5CCC[C@@](C)(O)C5)cc4n3)c2)(c2nncn2C)C1 (stereo partly shown) [Example 89]
IC50: 50 to 500 nM

CC1CC(c2ccc(F)c(-n3cc4c(C(F)(F)F)cc(CN5CCC[C@H](C)C5)cc4n3)c2)(c2nncn2C)C1 (stereo partly shown) [Example 72]
IC50: 20 to 50 nM

CC1CC(c2cc(OCF)nc(-n3ncc4c(C(F)(F)F)cc(CN5CCC[C@H](C)C5)cc4c3=O)c2)(c2nncn2C)C1 (stereo partly shown) [Example 38]
IC50 [1]: < 20 nM

CC1CC(c2cc(C#N)cc(-n3cc4c(C(F)(F)F)cc(CN5CCC[C@H](C)C5)cc4n3)c2)(c2nncn2C)C1 (stereo partly shown) [Example 53]
IC50: 50 to 500 nM

CC1CC(c2cccc(-n3nc(C(F)(F)F)c4ccc(CN5CCC[C@H](C)C5)cc4c3=O)c2)(c2nncn2C)C1 (stereo partly shown) [Example 9]
IC50: 50 to 500 nM

CC1CC(c2cccc(NC(=O)c3cc(CN4CCC[C@H](C)C4)cc4c3OC(F)(F)O4)c2)(c2nncn2C)C1 (stereo partly shown) [Example 25]
IC50: 20 to 50 nM

C[C@H]1CCCN(Cc2cc(C(F)(F)F)c3cn(-c4cc([C@]5(c6nncn6C)C[C@H](C)C5)ccn4)nc3c2)C1 [Example 71]
IC50: 50 to 500 nM

C[C@H]1CCCN(Cc2cc(C(F)(F)F)c3cn(-c4cccc([C@]5(c6nncn6C)C[C@@H](OC(F)(F)F)C5)c4)nc3c2)C1 [Example 92]
IC50: 50 to 500 nM

Cn1cnnc1C(F)C1(c2cccc(-n3cc4c(C(F)(F)F)cc(CN5CCC[C@H](C6CC6)C5)cc4n3)c2)COC1 (stereo partly shown) [Example 50]
IC50 [1]: < 20 nM

CC1CC(c2cccc(-n3ncc4c(C(F)(F)F)cc(CN5CCC[C@H](C)C5)cc4c3=O)c2)(c2nncn2C)C1 (stereo partly shown) [Example 6]
IC50: 20 to 50 nM

C[C@H]1CCCN(Cc2cc(C(=O)Nc3cccc([C@H](c4nncn4C)C4COC4)c3)cc(C(F)(F)F)c2)C1 [Example 27]
IC50: 50 to 500 nM

C[C@H]1CCCN(Cc2cc3c(=O)n(-c4cccc([C@]5(c6nncn6C)C[C@@H](C)C5)c4)cnc3c(C(F)(F)F)n2)C1 [Example 62]
IC50: 20 to 50 nM

CC1CC(c2cccc(-n3cc4c(C(F)(F)F)cc(CN5CCC[C@H](C)C5)cc4n3)c2)(c2nncn2C)C1 (stereo partly shown) [Example 7]
IC50 [1]: < 20 nM

Cn1cnnc1[C@]1(c2ccnc(-n3cnc4c(C(F)(F)F)cc(CN5CCC[C@H](CF)C5)cc4c3=O)c2)C[C@H](C)C1 [Example 105]
IC50 [1]: < 20 nM

C[C@H]1CCCN(Cc2cc(C(F)(F)F)c3cn(-c4cccc(C5(c6nncn6C)CC(=O)C5)c4)nc3c2)C1 [Example 68]
IC50: 50 to 500 nM

C[C@H]1CCCN(Cc2ccc3ncn(-c4cc([C@]5(c6nncn6C)C[C@@H](C)C5)cc(C5CC5)n4)c(=O)c3c2)C1 [Example 96]
IC50 [1]: < 20 nM

C=Cc1cc([C@]2(c3nncn3C)C[C@@H](C)C2)cc(-n2cnc3ccc(CN4CCC[C@H](C)C4)cc3c2=O)n1 [Example 94]
IC50 [1]: < 20 nM

CC1=CCCN(Cc2cc(C(F)(F)F)c3cnn(-c4cccc(C5(c6nncn6C)CC(C)C5)c4)c(=O)c3c2)C1 (stereo not shown) [Example 21]
IC50: 50 to 500 nM

C[C@H]1CCCN(Cc2cc(C(F)(F)F)c3cnn(-c4cccc([C@H](c5nncn5C)C5CCC5)c4)c(=O)c3c2)C1 [Example 19]
IC50: 50 to 500 nM

C#CC1CCCN(Cc2cc(C(F)(F)F)c3cnn(-c4cccc(C5(c6nncn6C)CC(C)C5)c4)c(=O)c3c2)C1 (stereo not shown) [Example 20]
IC50: 500 to 1000 nM

C[C@H]1CCCN(Cc2cc(C(=O)Nc3cccc(C(c4nncn4C)C4CCC4)c3)cc(C(F)(F)F)c2)C1 (stereo partly shown) [Example 31]
IC50: 50 to 500 nM

CC1CC(c2cccc(-n3cc4c(C(F)(F)F)cc(CN5C[C@@H](C)C[C@H](C)C5)cc4n3)c2)(c2nncn2C)C1 (stereo partly shown) [Example 86]
IC50: 50 to 500 nM

Cn1cnnc1[C@]1(c2cc(OCF)nc(-n3cnc4ccc(CN5CCC[C@H](F)C5)cc4c3=O)c2)C[C@H](C)C1 [Example 98]
IC50: 50 to 500 nM

CC1CC(c2cccc(-n3ncc4c(C(F)(F)F)cc(CN5CCO[C@H](C)C5)cc4c3=O)c2)(c2nncn2C)C1 (stereo partly shown) [Example 10]
IC50 [1]: > 1000 nM

— patent US20260008770A1, “CBL-B INHIBITORS AND METHODS OF USES THEREOF” (Insilico Medicine IP Limited, priority 2022, published 2026)
